The data set is described as follows: Specific surface area by nitrogen adsorption gas sorption (BET method). In kind it is physicochemical. The conditions noted are these: toltrazuril particles, outgased in vacuum at room temperature. As for the experimental part: Specific surface area was measured by gas sorption system based on nitrogen adsorption, using Brunauer, Emmett and Teller (BET) method. Corresponding amount of sample was outgased in a vacuum at room temperature. After degasification the tube was weighed with sample and the analysis was proceeded.

On to `Cc1cc(-n2c(=O)[nH]c(=O)n(C)c2=O)ccc1Oc1ccc(SC(F)(F)F)cc1` [Example 6, toltrazuril], for which the Specific surface area turned out to be 18.8 m^2/g. Under `Cc1cc(-n2c(=O)[nH]c(=O)n(C)c2=O)ccc1Oc1ccc(SC(F)(F)F)cc1` [Example 1, toltrazuril] stands 13.8 m^2/g; under `Cc1cc(-n2c(=O)[nH]c(=O)n(C)c2=O)ccc1Oc1ccc(SC(F)(F)F)cc1` [Example 2, toltrazuril], 15 m^2/g; under `Cc1cc(-n2c(=O)[nH]c(=O)n(C)c2=O)ccc1Oc1ccc(SC(F)(F)F)cc1` [Example 3, toltrazuril], 13.8 m^2/g. `Cc1cc(-n2c(=O)[nH]c(=O)n(C)c2=O)ccc1Oc1ccc(SC(F)(F)F)cc1` [micronized toltrazuril, toltrazuril] showed a Specific surface area of 14.1 m^2/g. In the case of `Cc1cc(-n2c(=O)[nH]c(=O)n(C)c2=O)ccc1Oc1ccc(SC(F)(F)F)cc1` [Example 5, toltrazuril] it was 19.5 m^2/g; in that of `Cc1cc(-n2c(=O)[nH]c(=O)n(C)c2=O)ccc1Oc1ccc(SC(F)(F)F)cc1` [Example 4, toltrazuril], 15.2 m^2/g.

The values are drawn from patent EP2276347B1, “TOLTRAZURIL WITH IMPROVED DISSOLUTION PROPERTIES” (KRKA, tovarna zdravil, d.d., Novo mesto, priority 2008, dated 2009).
